{"source": "paper PMC9848270", "about": "“Synthesis and biological assessment of indole derivatives containing penta-heterocycles scaffold as novel anticancer agents towards A549 and K562 cells” (Journal of Enzyme Inhibition and Medicinal Chemistry, 2023)", "key": {"[1]": {"test_system": "human prostate cancer cells (PC-3)", "test": "MTT antiproliferative assay, PC-3", "assay_type": "cell-based", "conditions": "for IC50: 48 h, MTT assay, read-out: In vitro cytotoxicity IC50, PC-3", "description": "(§1) A549, PC-3, HepG2 and K562 cells were purchased from the Kunming cell bank of the Chinese academy of sciences. All cell lines were cultured in DMEM or RPMI 1640 complete medium. Logarithmic growth cells were cultured in 96-well plates at a concentration of 10^4 cells per well and pre-cultured for 24 h before adding test compounds. The MTT test with 5-Fluorouracil and Gefitinib as reference compounds were used to evaluate antiproliferative activity of target compounds in four human cancer line cells. For the estimation of the inhibition concentration (IC50), the Graph Pad Prism (GraphPad Software, San Diego, CA) was used."}, "K562 cells [2]": {"test_system": "K562 cells", "test": "Cell cycle analysis (PI staining, flow cytometry), K562", "assay_type": "cell-based, human", "description": "(§2) A549 or K562 cells were separately seeded at 4.0 × 10^5cells/well in six-well plates and incubated for 24 h until adherent. […] After treatment, the cells were collected, and washed twice with pre-cooled PBS and then fixed with ice-cold ethanol (70%), subsequently kept 4 °C for overnight. After washing twice with PBS, cells were incubated at 37 °C with 100 µ L RNase A for 30 min. After this, cells were incubated with 400 µL PI for 30 min at 4 °C. Finally, the cell cycle distribution of compound 10 b was analysed via the BD FACSCalibur flow cytometry (American BD Corporation Shanghai Co. Ltd.)"}, "[3]": {"test_system": "human chronic myeloid leukaemia cells (K562)", "test": "MTT antiproliferative assay, K562", "assay_type": "cell-based", "description": "as §1"}, "A549 cells [4]": {"test_system": "A549 cells", "test": "DAPI staining, A549", "assay_type": "cell-based, human", "conditions": "1, 2 and 4 µM, 48 h", "description": "DAPI staining assay, A549 or K562 cells were separately seeded at 4.0 × 10^5 cells per well in six–well plates and incubated for 24 h until adherent. Next, the cells were treated with 10 b at 0, 1, 2 and 4 µM for 48 h. Then the cells were fixed with 4% paraformaldehyde for 15 min, and 1 ml/well of DAPI staining dye was added for 20 min in the dark. After adding the anti-fluorescence quencher, the cells can be imaged by an inverted fluorescence microscope."}, "[5]": {"test_system": "human liver cancer cells (HepG2)", "test": "MTT antiproliferative assay, HepG2", "assay_type": "cell-based", "description": "as §1"}, "A549 cells [6]": {"test_system": "A549 cells", "test": "Annexin V-FITC/PI apoptosis flow cytometry, A549", "assay_type": "cell-based, human", "conditions": "48 h, annexin V-FITC/PI", "description": "(§3) Annexin-V/FITC assay, after the adherent cells grew stably in the 6-well plate, each group was reacted with different concentrations of compound solutions for 48 h. Then, cells were collected by trypsinization without EDTA, rinsed twice with PBS, followed by the Annexin V-FITC/PI apoptosis detection kit (Solarbio, Bei Jing, China) according to the kit instructions, flow cytometry by BD FACSCalibur instrument (American BD Company Shanghai Co., Ltd.)."}, "A549 cells [7]": {"test_system": "A549 cells", "test": "Wound healing migration assay, A549", "assay_type": "cell-based, human", "conditions": "1 µM", "description": "After 24 h of growth, cells were placed in a 6-well plate, scratched using a 10 µL pipet tip on the cell surface. Then, gently wash twice with medium to remove the detached cells. The cells were treated with compound 10 b with 0.5 and 1.0 µM followed by 48 h incubation and photographed using an inverted microscope."}, "A549 cells [8]": {"test_system": "A549 cells", "test": "Cell cycle analysis (PI staining, flow cytometry), A549", "assay_type": "cell-based, human", "description": "as §2"}, "[9]": {"test_system": "human non-small cell lung cancer cells (A549)", "test": "MTT antiproliferative assay, A549", "assay_type": "cell-based", "description": "as §1"}, "[10]": {"test_system": "EGFR, p-EGFR, Akt and p-Akt levels in A549", "test": "Western blot, A549", "assay_type": "cell-based, human", "conditions": "0.5 and 1 μM, 48 h", "description": "(§4) Cells were treated with different concentrations of compound for 48 h. After incubation, the cells were washed and collected. Total cell extracts were prepared with RIPA buffer, containing protease inhibitor and phosphatase inhibitor. The lysate was incubated at 0 °C for 60 min, and centrifuged at 12,000 rpm for 15 min at 4 °C to remove cellular debris. Next, the protein concentration was detected using BCA protein concentration assay kit (Beyotime, Shanghai). 20 µg of total protein was subjected to gel electrophoresis and transferred to PVDF membranes (Millipore, Burlington, MA, USA). After blocking in 5% BSA blocking buffer for 60 min, then incubated with primary antibody overnight at 4 °C, washed three times with TBST for 5 min each, followed by incubation with secondary antibody and washed. The blot was developed and exposed by chemiluminescence developer solution, which was placed on a chemiluminescence developer (Pierce, Rockford, Illinois, USA)."}, "[11]": {"test": "MTT cytotoxicity, normal cell line HEK293", "assay_type": "cell-based, human", "conditions": "human"}, "[12]": {"test_system": "normal cell line (HEK293)", "test": "MTT cytotoxicity, normal cell line HEK293", "assay_type": "cell-based, human", "conditions": "Homo sapiens, HEK293; 10 μM; read-out: Inhibition rate, HEK293"}, "K562 cells [13]": {"test_system": "K562 cells", "test": "Annexin V-FITC/PI apoptosis flow cytometry, K562", "assay_type": "cell-based, human", "conditions": "48 h, annexin V-FITC/PI", "description": "as §3"}, "[14]": {"test_system": "MDM2 and p53 levels in K562", "test": "Western blot, K562", "assay_type": "cell-based, human", "conditions": "0.5 µM, 48 h", "description": "as §4"}, "MCF-7 cell": {"test_system": "MCF-7 cell", "design": "method as in PMID 33130342", "conditions": "cited from earlier work"}, "[15]": {"molecular_target": "epidermal growth factor receptor (EGFR)", "conditions": "read-out: EGFR inhibition IC50; cited from earlier work"}}, "note": "Where two headings read alike, the source gives them in different places."}
{"smiles": "COc1cc(-c2nnc(SCC(=O)Nc3cc(-c4c[nH]c5ccccc45)n[nH]3)s2)cc(OC)c1OC", "note": "[Compound 10b, N-(3-(1H-indol-3-yl)-1H-pyrazol-5-yl)-2-((5-(3,4,5-trimethoxyphenyl)-1,3,4-thiadiazol-2-yl)thio)acetamide]", "values": [{"measurement": "IC50", "setting": "[1]; Homo sapiens", "result": 850, "unit": "nM"}, {"measurement": "inhibition at 10 µM", "setting": "[1]; Homo sapiens, 10 μM, read-out: Inhibition rate, PC-3", "result": "88.4 ± 5.99", "unit": "%"}, {"measurement": "IC50", "setting": "[1]", "result": "853 ± 720", "unit": "nM"}, {"measurement": "DNA contents of the live population, G2/M phase, K562", "setting": "K562 cells [2]; 4 µM, 48 h", "result": 27.60, "unit": "%"}, {"measurement": "DNA contents of the live population, S phase, K562", "setting": "K562 cells [2]; 4 µM, 48 h", "result": 26.47, "unit": "%"}, {"measurement": "cell cycle arrest in words, K562", "setting": "K562 cells [2]; dose-dependent, 1, 2, 4 µM", "result": "arresting cells in the G2/M phase"}, {"measurement": "inhibition at 10 µM", "setting": "[3]; K562, 10 μM, read-out: Inhibition rate, K562", "result": "97.2 ± 0.526", "unit": "%"}, {"measurement": "IC50", "setting": "[3]; K562, 48 h, MTT assay, 48 h, read-out: In vitro cytotoxicity IC50, K562", "result": "13.2 ± 10", "unit": "nM"}, {"measurement": "IC50", "setting": "[3]; K562, Table 2, unit inferred, repeats Table 1, read-out: K562 (IC50, Table 2)", "result": "13.2 ± 10", "unit": "nM"}, {"measurement": "IC50", "setting": "[3]; K562, as stated in abstract and conclusion, read-out: IC50 against K562", "result": 10, "unit": "nM"}, {"measurement": "apoptosis by DAPI staining, in words", "setting": "A549 cells [4]", "result": "induced apoptosis"}, {"measurement": "inhibition at 10 µM", "setting": "[5]; 10 μM, read-out: Inhibition rate, HepG2", "result": "92.1 ± 3.01", "unit": "%"}, {"measurement": "IC50", "setting": "[5]; MTT assay, 48 h, read-out: In vitro cytotoxicity IC50, HepG2", "result": "210 ± 70", "unit": "nM"}, {"measurement": "Q2, late apoptotic cells, A549", "setting": "A549 cells [6]; 1 μM", "result": 8.36, "unit": "%"}, {"measurement": "Q2, late apoptotic cells, A549", "setting": "A549 cells [6]; 2 μM", "result": 16.0, "unit": "%"}, {"measurement": "Q2, late apoptotic cells, A549", "setting": "A549 cells [6]; 4 μM", "result": 35.7, "unit": "%"}, {"measurement": "migration of A549 cells, in words", "setting": "A549 cells [7]", "result": "could inhibit the migration of A549 cells"}, {"measurement": "DNA contents of the live population, G0/G1 phase, A549", "setting": "A549 cells [8]; 4 µM, 48 h", "result": 38.60, "unit": "%"}, {"measurement": "DNA contents of the live population, G2/M phase, A549", "setting": "A549 cells [8]; 4 µM, 48 h", "result": 24.33, "unit": "%"}, {"measurement": "DNA contents of the live population, S phase, A549", "setting": "A549 cells [8]; 4 µM, 48 h", "result": 27.47, "unit": "%"}, {"measurement": "cell cycle arrest in words, A549", "setting": "A549 cells [8]; dose-dependent, 1, 2, 4 µM", "result": "arresting cells in the G2/M phase"}, {"measurement": "inhibition at 10 µM", "setting": "[9]; A549, 10 μM, read-out: Inhibition rate, A549", "result": "96.2 ± 0.737", "unit": "%"}, {"measurement": "IC50", "setting": "[9]; A549, 48 h, MTT assay, 48 h, read-out: In vitro cytotoxicity IC50, A549", "result": 120, "unit": "nM"}, {"measurement": "IC50", "setting": "[9]; A549, Table 2, unit inferred, repeats Table 1, read-out: A549 (IC50, Table 2)", "result": "124 ± 50", "unit": "nM"}, {"measurement": "IC50", "setting": "[9]; A549, as stated in abstract and conclusion, read-out: IC50 against A549", "result": 12, "unit": "nM"}, {"measurement": "p-Akt protein level in A549", "setting": "[10]", "result": "downregulated in a dose dependently manner"}, {"measurement": "p-EGFR protein level in A549", "setting": "[10]", "result": "downregulated in a dose dependently manner"}, {"measurement": "IC50 at 48 h", "setting": "[11]; HEK293 cells (normal cell line), MTT assay, 48 h, normal cell line, CC50, read-out: In vitro cytotoxicity IC50, HEK293", "result": "1120 ± 1390", "unit": "nM"}, {"measurement": "CC50", "setting": "[11]; HEK293 cells, Table 2, unit inferred, repeats Table 1", "result": "1120 ± 1390", "unit": "nM"}, {"measurement": "inhibition at 10 µM", "setting": "[12]", "result": "77.9 ± 2.08", "unit": "%"}, {"measurement": "Q2, late apoptotic cells, K562", "setting": "K562 cells [13]; 1 μM", "result": 58.2, "unit": "%"}, {"measurement": "Q2, late apoptotic cells, K562", "setting": "K562 cells [13]; 2 μM", "result": 67.8, "unit": "%"}, {"measurement": "Q2, late apoptotic cells, K562", "setting": "K562 cells [13]; 4 μM", "result": 73.2, "unit": "%"}, {"measurement": "MDM2 expression in K562", "setting": "[14]", "result": "significantly downregulated"}, {"measurement": "p53 protein level in K562", "setting": "[14]", "result": "upregulated in a certain extent"}]}
{"smiles": "O=C(Nc1nnc(SCc2ccc(Cl)c(Cl)c2)s1)c1cn(C2CC2)c2cc(N3CCNCC3)c(F)cc2c1=O", "note": "[Compound B]", "values": [{"measurement": "apoptosis in MCF-7 cell, in words", "setting": "MCF-7 cell", "result": "inducing apoptosis significantly"}]}
{"smiles": "C=CCSc1nnc(-c2cc3ccccc3[nH]2)n1N=Cc1c[nH]c2ccccc12", "note": "[Compound C]", "values": [{"measurement": "IC50", "setting": "[15]", "result": 19.8, "unit": "nM"}]}
